Reference: US8283353B2, “Fused ring compound and use thereof” (Takeda Pharmaceutical Company Limited, priority 2009, dated 2012)

Key:
human AT1 receptor = biological target: T1, human AT1 receptor (Homo sapiens, UniProt P30556); assay: AT1 receptor antagonistic activity: [125I]-angiotensin II binding assay on human AT1 receptor-expressing CHO-K1 cellular membrane fraction; details: 22.5 pM [125I]-angiotensin II, 1 hr room temperature
T1 construct: expressed in transfected cells; membrane fraction
T1 sequence (P30556 1-359): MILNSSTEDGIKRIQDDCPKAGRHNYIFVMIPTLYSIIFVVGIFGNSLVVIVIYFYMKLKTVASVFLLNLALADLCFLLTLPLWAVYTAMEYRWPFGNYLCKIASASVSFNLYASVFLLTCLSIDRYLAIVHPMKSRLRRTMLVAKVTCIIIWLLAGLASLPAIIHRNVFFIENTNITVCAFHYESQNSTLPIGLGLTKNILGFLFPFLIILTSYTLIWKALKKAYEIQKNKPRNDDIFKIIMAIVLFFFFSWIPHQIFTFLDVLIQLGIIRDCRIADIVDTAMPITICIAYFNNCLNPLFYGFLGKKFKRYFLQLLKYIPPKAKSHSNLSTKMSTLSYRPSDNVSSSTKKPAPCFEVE
Procedure: CHO-K1 cell (RIKEN, Japan) capable of stable expression of human AT1 receptor was cultured, recovered, suspended in homogenize buffer (10 mM NaHCO3 (pH 7.4), 5 mM EDTA, 1× Complete EDTA free) [manufactured by Roche, Switzerland], and homogenized. The homogenate was centrifuged at low-speed (900×g, 10 min, 4° C.), and the supernatant was recovered and ultracentrifuged (90,000×g, 1 hr, 4° C.). The supernatant was discarded, and the pellets were resuspended in suspension buffer (50 mM Tris (pH 7.4), 1 mM EDTA, 1× Complete EDTA free).
(9 μg) in the presence of AT1 membrane and test compound in 100 μl, (total reaction volume) of reaction buffer (50 mM Tris (pH 7.4), 10 mM MgCl2 supplemented or not supplemented with 0.3 mg/mL fatty acid-free bovine serum albumin [manufactured by Wako Pure Chemical Industries, Ltd., Japan]). The reaction mixture was incubated in 96 well polypropylene plate for 1 hr at room temperature, and the reaction was quenched by rapid filtration (96 well cell harvester) through a GF/C filter treated with wash buffer (50 mM Tris (pH 7.4)). Subsequently, the filter was washed 5 times with 0.3 mL of ice-cooled wash buffer. […] Total binding was measured in the presence of 1% DMSO and nonspecific binding was measured in the presence of […] Candesartan.

human PPARγ = biological target: T2, human PPARγ (Homo sapiens, UniProt P37231); assay: PPARγ agonistic activity: luciferase reporter assay in PPARγ:RXRα:4ERPP/CHO-K1 cells; type: cell-based; details: CHO-K1, test compound 10^−6 M; luciferase activity of control compound X (1 μM) = 100%, non-administration group = 0%
T2 construct: expressed in transfected cells
T2 sequence (P37231 1-477 isoform P37231-2): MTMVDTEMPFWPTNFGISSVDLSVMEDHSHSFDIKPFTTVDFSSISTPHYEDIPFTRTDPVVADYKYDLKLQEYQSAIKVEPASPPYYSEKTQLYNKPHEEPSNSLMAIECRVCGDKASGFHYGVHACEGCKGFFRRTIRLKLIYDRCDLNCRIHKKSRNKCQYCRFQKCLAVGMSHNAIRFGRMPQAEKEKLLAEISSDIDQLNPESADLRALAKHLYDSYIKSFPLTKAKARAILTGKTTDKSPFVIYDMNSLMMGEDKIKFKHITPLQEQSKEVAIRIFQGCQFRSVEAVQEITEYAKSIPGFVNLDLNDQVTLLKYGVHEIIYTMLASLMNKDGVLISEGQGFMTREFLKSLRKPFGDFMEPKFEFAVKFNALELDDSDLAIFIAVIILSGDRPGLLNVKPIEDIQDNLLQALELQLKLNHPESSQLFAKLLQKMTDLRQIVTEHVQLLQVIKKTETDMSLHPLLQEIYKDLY
T2 sequence (P19793 1-462 partner): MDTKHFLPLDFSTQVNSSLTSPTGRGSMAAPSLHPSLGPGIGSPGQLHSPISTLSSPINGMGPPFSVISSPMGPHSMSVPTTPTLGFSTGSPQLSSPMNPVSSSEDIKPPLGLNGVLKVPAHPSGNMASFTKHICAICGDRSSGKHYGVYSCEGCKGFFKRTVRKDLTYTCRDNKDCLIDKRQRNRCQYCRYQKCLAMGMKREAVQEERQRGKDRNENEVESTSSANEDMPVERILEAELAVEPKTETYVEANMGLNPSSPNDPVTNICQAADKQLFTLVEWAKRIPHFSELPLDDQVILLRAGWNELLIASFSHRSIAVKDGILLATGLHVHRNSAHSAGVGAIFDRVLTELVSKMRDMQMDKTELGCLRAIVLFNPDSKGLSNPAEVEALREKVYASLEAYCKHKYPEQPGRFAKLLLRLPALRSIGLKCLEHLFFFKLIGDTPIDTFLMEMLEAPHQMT
Text: A CHO-K1 cell cultured in a 150 cm^2 cell culture flask [manufactured by Corning Costar Corporation, USA] comprising Ham's F12 medium [manufactured by INVITROGEN, USA] supplemented with 10% fetal bovine serum [manufactured by INVITROGEN, USA] was taken off by treating with 0.5 g/L trypsin-0.2 g/L EDTA (ethylenediamine tetraacetate) [manufactured by Life Technologies, Inc., USA], and then the cell was washed with PBS (Phosphate-buffered saline) [manufactured by INVITROGEN, USA], centrifuged (1000 rpm, 5 minutes) and suspended in PBS. Subsequently, DNA was introduced into the cell under the conditions shown below using GENE PULSER [manufactured by Bio-Rad Laboratories, USA].
Namely, to a cuvette having a 0.4 cm gap were added 8×10^6 cells and 10 μg of plasmid pVgRXR2-hPPARγ obtained in the above-mentioned (4) and 10 μg of reporter plasmid pGL3-4ERPP-TK neo obtained in the above-mentioned (3), which was subjected to electroporation at the voltage of 0.25 kV under the capacitance of […] Subsequently, the cell was transferred into a F12 medium comprising 10% fetal bovine serum and cultured for 24 hours, and then the cell was taken off again and centrifuged. Then, the pellet was suspended in Ham's F12 medium comprising 10% fetal bovine serum supplemented with 500 μg/ml of Geneticin [manufactured by INVITROGEN, USA] and 250 μg/ml of Zeocin [manufactured by INVITROGEN, USA]. The obtained suspension was diluted to the density of 10^4 cells/ml and inoculated in a 96-well plate [manufactured by Corning Costar Corporation, USA], which was cultured in a CO2 gas incubator at 37° C., whereby obtaining a Geneticin- and Zeocin-resistant transformant.
Subsequently, after the transformed cell line thus obtained was cultured in a 24-well plate [manufactured by Corning Costar Corporation, USA], a cell line in which expression of the luciferase was induced, i.e., PPARγ:RXRα:4ERPP/CHO-K1 cell was selected by the addition of 10 μM pioglitazone hydrochloride.
PPARγ:RXRα:4ERPP/CHO-K1 cells obtained in the above-mentioned (5) were cultured in F12 medium [manufactured by INVITROGEN, USA] containing 10% fetal bovine serum [manufactured by MOREGATE, Australia], seeded in a 96 well half-area white plate [manufactured by Corning Coster Corporation, USA] at 5×10^3 cells/well, and cultured in a CO2 incubator at 37° C. overnight.
Then, the medium was removed from the 96 well half-area white plate, hamF12 medium containing 0.1% fatty acid-free bovine serum albumin (BSA) (45 μl) and a test compound (5 μl) were added, and the mixture was cultured in the CO2 incubator at 37° C. for 1 day. After removing the medium, Picagene 7.5 [manufactured by Dai Nippon Inki, Japan] (20 μl) diluted 2-fold with HBSS (HANKS' BALANCED SALT SOLUTION) [manufactured by BIO […], USA] was added, and the mixture was stirred. Using 1420 ARVO Multilabel Counter [manufactured by PerkinElmer, USA], luciferase activity was measured. The percentage (%) was calculated from the luciferase activity of the test compound when the luciferase activity of the control compound (compound X: 5-[3-(4-{[2-(2-furyl)-5-methyl-1,3-oxazol-4-yl]methoxy}-3-methoxyphenyl)propyl]-1,3-oxazolidine-2,4-dione) (1 μM) was taken as 100% and the luciferase activity of the test compound non-administration group was taken as 0%.

IC50 (human AT1 receptor) [nM] | activation at 1 µM (human PPARγ) [%] | Structure (SMILES)
1.5 | 16 | CCCc1c(Cc2ccc(-c3ccccc3-c3noc(=O)[nH]3)cc2F)c(=O)n(C2CCOCC2)c2nc(C)nn12 [Example 108, 6-{[3-fluoro-2′-(5-oxo-4,5-dihydro-1,2,4-oxadiazol-3-yl)biphenyl-4-yl]methyl}-2-methyl-7-propyl-4-(tetrahydro-2H-pyran-4-yl)[1,2,4]triazolo[1,5-a]pyrimidin-5(4H)-one]
1.9 | 33 | CCCc1c(Cc2ccc(-c3ccccc3-c3noc(=O)[nH]3)cc2)c(=O)n([C@H]2CC[C@H](OCC#N)CC2)c2ncnn12 [Example 210, ({trans-4-[5-oxo-6-{[2′-(5-oxo-4,5-dihydro-1,2,4-oxadiazol-3-yl)biphenyl-4-yl]methyl}-7-propyl[1,2,4]triazolo[1,5-a]pyrimidin-4(5H)-yl]cyclohexyl}oxy)acetonitrile]
2.2 | 53 | CCCc1c(Cc2ccc(-c3ccccc3-c3noc(=O)[nH]3)cc2)c(=O)n([C@H]2CC[C@H](Oc3ccon3)CC2)c2ncnn12 [Example 282, 4-[trans-4-(isoxazol-3-yloxy)cyclohexyl]-6-{[2′-(5-oxo-4,5-dihydro-1,2,4-oxadiazol-3-yl)biphenyl-4-yl]methyl}-7-propyl[1,2,4]triazolo[1,5-a]pyrimidin-5(4H)-one]
2.7 | 22 | CCCc1c(Cc2ccc(-c3ccccc3-c3noc(=O)[nH]3)cc2)c(=O)n([C@H]2CC[C@H](Oc3ccc(C(C)=O)cc3)CC2)c2ncnn12 [Example 278, 4-[trans-4-(4-acetylphenoxy)cyclohexyl]-6-{[2′-(5-oxo-4,5-dihydro-1,2,4-oxadiazol-3-yl)biphenyl-4-yl]methyl}-7-propyl[1,2,4]triazolo[1,5-a]pyrimidin-5(4H)-one]
1.5 | 20 | CCCc1c(Cc2ccc(-c3ccccc3-c3noc(=O)[nH]3)cc2)c(=O)n(CC(C)(C)COC)c2nc(C)nn12 [Example 73, 4-(3-methoxy-2,2-dimethylpropyl)-2-methyl-6-{[2′-(5-oxo-4,5-dihydro-1,2,4-oxadiazol-3-yl)biphenyl-4-yl]methyl}-7-propyl[1,2,4]triazolo[1,5-a]pyrimidin-5(4H)-one]
1.7 | 30 | CCCc1c(Cc2ccc(-c3ccccc3-c3noc(=O)[nH]3)cc2F)c(=O)n([C@H]2CC[C@H](OCC(C)(C)O)CC2)c2ccnn12 [Example 435, 6-{[3-fluoro-2′-(5-oxo-4,5-dihydro-1,2,4-oxadiazol-3-yl)biphenyl-4-yl]methyl}-4-[trans-4-(2-hydroxy-2-methylpropoxy)cyclohexyl]-7-propylpyrazolo[1,5-a]pyrimidin-5(4H)-one]
2.9 | 15 | CCCc1c(C(C)c2ccc(-c3ccccc3-c3noc(=O)[nH]3)cc2)c(=O)n([C@H]2CC[C@H](OCC(C)(C)O)CC2)c2ncnn12 (stereo partly drawn) [Example 131, 4-[trans-4-(2-hydroxy-2-methylpropoxy)cyclohexyl]-6-{1-[2′-(5-oxo-4,5-dihydro-1,2,4-oxadiazol-3-yl)biphenyl-4-yl]ethyl}-7-propyl[1,2,4]triazolo[1,5-a]pyrimidin-5(4H)-one]
1.3 | 18 | CCCc1c(Cc2ccc(-c3ccccc3-c3noc(=O)[nH]3)cc2)c(=O)n(CC(C)(C)C)c2nc(C)nn12 [Example 2, 4-(2,2-dimethylpropyl)-2-methyl-6-{[2′-(5-oxo-4,5-dihydro-1,2,4-oxadiazol-3-yl)biphenyl-4-yl]methyl}-7-propyl[1,2,4]triazolo[1,5-a]pyrimidin-5(4H)-one]
2.8 | 28 | CCCc1c(Cc2ccc(-c3ccccc3-c3noc(=O)[nH]3)cc2)c(=O)n([C@H]2CC[C@@H](Oc3ccc(OC)cc3)CC2)c2ncnn12 [Example 272, 4-[cis-4-(4-methoxyphenoxy)cyclohexyl]-6-{[2′-(5-oxo-4,5-dihydro-1,2,4-oxadiazol-3-yl)biphenyl-4-yl]methyl}-7-propyl[1,2,4]triazolo[1,5-a]pyrimidin-5(4H)-one]
1.3 | – | CCCCc1c(Cc2ccc(-c3ccccc3-c3noc(=O)[nH]3)cc2)c(=O)n(C2CCOC(C)C2)c2ncnn12 (stereo not shown) [Example 160, 7-butyl-4-(2-methyltetrahydro-2H-pyran-4-yl)-6-{[2′-(5-oxo-4,5-dihydro-1,2,4-oxadiazol-3-yl)biphenyl-4-yl]methyl}[1,2,4]triazolo[1,5-a]pyrimidin-5(4H)-one]
